Data set [1] has as its target T1, mouse α4β2 nAChRs (Mus musculus, UniProt O70174+Q9ERK7).
T1 construct: expressed in transfected cells; host or cells: mouse neuroblastoma-2a (neuro-2a) cells, transient transfection with Lipofectamine 3000
Briefly: Calcium 6 Ca2+ flux assay, neuro-2a cells transiently transfected with α4β2 nAChRs. The format is cell-based.

Data set [2] has as its system hTRPM8. Details: method as in PMID 31850745. The following applies: cited from earlier work.
Data set [3] relates to C57BL/6J mice. Kind of data set: Conditioned place preference (CPP) assay. The format is in vivo, mouse. As for the experimental part:
CPP assays were completed in a three-chamber spatial place preference chamber (Harvard Apparatus, PanLab, dimensions: 47.5 × 27.5 × 47.5 cm) using male and female C57BL/6J mice. Time in chambers was recorded by motion tracking software (SMART 3.0). […] On day 1, a pre-test was completed wherein mice were placed in the central chamber and allowed free access to the apparatus for 20 min. Mice that spent >65% of the test in one chamber were excluded and the remaining mice were counterbalanced. For counterbalancing, mice were separated into groups of approximately equal bias, similar to previously published CPP methods. No exclusions were necessary for these studies. Following counterbalancing, no initial biases were noted. The mice received their designated drug injections on days 2, 4, 6, and 8, and received saline injections on days 3, 5, 7, and 9. Each conditioning period lasted 20 min. On day 10, a post-test was completed whereby the mice were again placed in the central chamber and allowed free access for 20 min. In total, 5 male and 5 female C57BL/6J mice, 3–5 months old, were used in the CPP assays for each treatment group. Time spent in the saline-paired chamber was subtracted from time spent in the drug-paired chamber to score the pre-test and post-test. CPP score (or change from baseline) was determined by subtracting the pre-test score from the post-test score. A significant positive CPP score is indicative of reward-related behavior, while a significant reduction is indicative of aversion-related behavior.
No sex differences were observed and data for males and females were combined (see Results for specifics). Data are expressed as a change in baseline preference, which was analyzed using a one-way ANOVA with a post hoc Tukey.

Data set [4] has as its system MDR1-MDCK cell monolayers. Briefly: in vitro. The procedure: (§1) MDR1-MDCK Permeability. Pharmacokinetic experiments with compounds were performed by Absorption Systems (Exton, PA, USA). MDR1-MDCK cell monolayers were grown to confluence on collagen-coated, microporous membranes in 12-well assay plates. The permeability assay buffer was Hanks’ balanced salt solution containing 10 mM HEPES and 15 mM glucose at a pH of 7.4. The buffer in the receiver chamber also contained 1% bovine serum albumin. The dosing solution concentration was 5 […]
(§2) μM of test article in the assay buffer. Cell monolayers were dosed on the apical side (A-to-B) or basolateral side (B-to-A) and incubated at 37°C with 5% CO2 in a humidified incubator. Samples were […]
(§3) chambers at 0 and 120 minutes; samples were taken from the receiver chambers at 120 minutes. Each determination was performed in duplicate. The flux of lucifer yellow was also measured post-experimentally for each monolayer to ensure no damage was inflicted to the cell monolayers during the flux period. All samples were assayed by LC-MS/MS using electrospray ionization. Analytical conditions were carried out as previously described (REF:Journigan ACS CN 2020). The apparent permeability (Papp) and percent recovery were calculated as follows:
(§4) Papp = (dCr /dt) × Vr/(A × C0) (1)
(§5) Percent Recovery = 100 × ((Vr × Crfinal) + (Vd × Cd final))/(Vd × C0) (2) […]
(§6) dCr /dt is the slope of the cumulative receiver concentration versus time in M sµ -1;
(§7) Vr is the volume of the receiver compartment in cm3;
(§8) Vd is the volume of the donor compartment in cm3;
(§9) A is the area of the insert (1.13 cm2 for 12-well);
(§10) C0 is the measured concentration of the donor chamber at time 0 in μM;
(§11) Crfinal is the cumulative receiver concentration in μM at the end of the incubation period; Cdfinal is the concentration of the donor in μM at the end of the incubation period.
(§12) Efflux ratio (ER) is defined as Papp (B-to-A) / Papp (A-to-B).
(§13) Brain Penetration Potential Classification:
(§14) Papp (A-to-B) ≥ 3.0 and ER < 3.0: High
(§15) Papp (A-to-B) ≥ 3.0 and 10 > ER ≥ 3.0: Moderate

Data set [5] has as its system MDR1. Kind of data set: in vitro. The following applies: dog; for efflux ratio at 120 min, 5 μM: MDCK-MDR1, pH 7.4; for recovery at 120 min, 5 μM: MDCK-MDR1, pH 7.4, Recovery (%), pH 7.4, 120 minutes. The procedure: as §1, §2, §3, §4, §5, §6, §7, §8, §9, §10, §11, §12, §13, §14, §15
The nature of data set [6]: Stability in mouse liver microsomes. The format is in vitro ADME. The procedure:
Mouse Liver Microsome Assays. These assays were carried out as detailed previously.
(Liver microsomes are vesicles of endoplasmic reticulum, rich in cytochrome P450 enzymes.)

For data set [7] the following is noted: reported; ref 1 (supplement); cited from earlier work.
The mark [8] stands for this setting: in the presence of 100 µM nicotine.

Like-named read-outs stand apart in the source and are kept apart here.

Results on eight compounds are retold here after article PMC8398432 (Molecules, 2021).

T1 sequence (O70174 31-629): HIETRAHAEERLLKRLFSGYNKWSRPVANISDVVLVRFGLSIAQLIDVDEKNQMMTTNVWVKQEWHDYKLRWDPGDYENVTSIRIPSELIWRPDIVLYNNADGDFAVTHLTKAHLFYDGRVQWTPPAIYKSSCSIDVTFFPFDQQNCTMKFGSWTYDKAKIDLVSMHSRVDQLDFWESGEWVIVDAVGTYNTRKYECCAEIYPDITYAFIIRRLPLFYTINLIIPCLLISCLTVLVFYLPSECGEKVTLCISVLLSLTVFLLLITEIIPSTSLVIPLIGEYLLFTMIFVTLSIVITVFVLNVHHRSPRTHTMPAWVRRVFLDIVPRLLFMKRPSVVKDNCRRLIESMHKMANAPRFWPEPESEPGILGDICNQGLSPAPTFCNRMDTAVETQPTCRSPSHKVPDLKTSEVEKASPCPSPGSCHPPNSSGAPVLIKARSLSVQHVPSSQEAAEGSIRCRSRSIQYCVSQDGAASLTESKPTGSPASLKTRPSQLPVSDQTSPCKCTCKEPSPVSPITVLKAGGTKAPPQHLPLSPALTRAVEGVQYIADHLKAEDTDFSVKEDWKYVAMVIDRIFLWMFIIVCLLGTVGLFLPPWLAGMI
T1 sequence (Q9ERK7 26-501): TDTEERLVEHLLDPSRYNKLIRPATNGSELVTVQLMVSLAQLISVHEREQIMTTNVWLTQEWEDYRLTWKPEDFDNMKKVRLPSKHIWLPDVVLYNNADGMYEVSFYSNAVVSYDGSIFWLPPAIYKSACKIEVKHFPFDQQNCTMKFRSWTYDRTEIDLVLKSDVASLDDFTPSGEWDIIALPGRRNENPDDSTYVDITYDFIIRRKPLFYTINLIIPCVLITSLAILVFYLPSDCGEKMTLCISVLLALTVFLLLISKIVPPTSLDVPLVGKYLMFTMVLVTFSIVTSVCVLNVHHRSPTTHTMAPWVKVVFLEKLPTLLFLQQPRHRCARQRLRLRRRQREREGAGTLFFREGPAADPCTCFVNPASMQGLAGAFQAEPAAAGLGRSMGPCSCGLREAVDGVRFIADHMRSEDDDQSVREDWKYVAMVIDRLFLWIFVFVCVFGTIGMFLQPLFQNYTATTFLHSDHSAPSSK

In the case of `O=C(NC1CCCCC1)c1ccc(-c2ccccc2)cc1` [VBJ032], in data set [1] (setting [8]), the “concentration at which maximum increase occurs” value is 50 µM. Further, in data set [2], the IC50 – broadly, the concentration needed to halve the response being measured – was 49000 ± 1000 nM.
Regarding `O=C(NC1CCCCCCC1)c1ccc(-c2ccccc2)cc1` [VBJ051], the “concentration at which maximum increase occurs” value in data set [1] (setting [8]) was found to be 50 µM. Further, in data set [2], the IC50 is 62 ± 1 nM.
Take `O=C(NC(C1CCCCC1)C1CCCCC1)c1ccc(-c2ccccc2)cc1` [VBJ098]: the “activity as an agonist, PM, or antagonist” value in data set [1] (α4β2 nAChRs) is given as “no activity”.
On to `O=C(NC1CCC2CCCCC2C1)c1ccc(-c2ccccc2)cc1` (stereo not drawn) [VBJ104], for which the Emax in data set [1] (N2a, read-out: Max Efficacy (Normalized to 100 µM Nicotine), in the presence of 100 µM nicotine, mean ± SEM) is 361%. Moreover, in data set [1] (setting [8]), the “concentration at which maximum increase occurs” value came out at 100 µM. For the same compound, the “Max Efficacy (Normalized to 100 µM Nicotine)” value in data set [1] (in the presence of 100 µM nicotine, mean ± SEM) is recorded as 360.7 ± 37.7%. Also, in data set [3] (0.5 mg/kg nicotine plus 0.5 mg/kg VBJ104, compared to nicotine, p < 0.05), the “reward-related behavior (in words)” value was “significant increase in reward-related behavior”. Besides, the “reward-related behavior (in words)” value in data set [3] (0.5 mg/kg nicotine plus 1.0 mg/kg VBJ104, p < 0.0001 vs saline, not vs nicotine alone) is listed as “significant CPP compared to saline”. The CPP score in data set [3] (female mice, 0.5 mg/kg nicotine plus 0.5 mg/kg VBJ104, intraperitoneal) amounted to 269.8. Further, in data set [3] (male mice, 0.5 mg/kg nicotine plus 0.5 mg/kg VBJ104, intraperitoneal), the CPP score was 261.5. Also, in data set [4] (MDCK-MDR1), the “Brain Penetration Classification” value is given as “Low” and the “MDR1-MDCK permeability efflux ratio (in words)” value was “low”. The Papp average in data set [4] (dog, MDCK-MDR1, 120 min, 5 μM, pH 7.4) is 1.22 10-6 cm/s. The efflux ratio (as a rule, the permeability from basolateral to apical divided by that in the opposite direction, in the common usage) at 120 min, 5 μM in data set [5] worked out at 0.685. In addition, the Papp (in general, a coefficient for how fast a substance crosses the barrier) at 120 min, 5 μM in data set [5] (MDCK-MDR1, pH 7.4, Papp R2) amounted to 1.67 ×10⁻⁶ cm/s. In data set [5] (MDCK-MDR1, pH 7.4, Papp average), this compound returned a Papp at 120 min, 5 μM of 1.79 ×10⁻⁶ cm/s. In addition, in data set [5] (A-to-B, 5 μM), the recovery at 120 min, 5 μM is 70.8%. The compound also yielded a recovery at 120 min, 5 μM in data set [5] (B-to-A, 5 μM) of 86.9%. In data set [6] (mouse, microsomes), the half-life (as a rule, the time needed for the level to fall by half in the phase considered) turned out to be 11.3 min; the microsomal CLint came out at 122 µL/min/mg; the share remaining – broadly, the share of the starting amount still present when the sample was taken – at 0 h stood at 100%; the share remaining at 10 min amounted to 40.8%. In data set [6] (mouse, microsomes), this compound gave an amount remaining at 20 min of 30.7%, a fraction remaining at 0.5 h of 22.5% and a fraction remaining at 1 h of 10.3%. In data set [2], the concentration for half-maximal inhibition (IC50) is 6 ± 1 nM.
Regarding `O=C(NC1CCc2ccccc2C1)c1ccc(-c2ccccc2)cc1` (stereo not drawn) [VBJ109], the “concentration at which maximum increase occurs” value in data set [1] (setting [8]) was determined as 50 µM. Besides, the IC50 in data set [2] is 52 ± 1 nM.
For the compound `C[C@H]1O[C@@H](O[C@H]2[C@@H](O)C[C@H](O[C@H]3[C@@H](O)C[C@H](O[C@H]4CC[C@@]5(C)[C@H](CC[C@@H]6[C@@H]5C[C@@H](O)[C@]5(C)[C@@H](C7=CC(=O)OC7)CC[C@]65O)C4)O[C@@H]3C)O[C@@H]2C)C[C@H](O)[C@@H]1O` [digoxin, reference compound], in data set [5], the efflux ratio at 120 min, 5 μM was 299. Also, the apparent permeability coefficient (Papp) at 120 min, 5 μM in data set [5] (MDCK-MDR1, pH 7.4, Papp average, A-to-B, 5 μM) is 0.0612 ×10⁻⁶ cm/s; in data set [5] (MDCK-MDR1, pH 7.4, Papp average, B-to-A, 5 μM) it was 18.3 ×10⁻⁶ cm/s.
For the compound `CN1CCC[C@H]1c1cccnc1` [nicotine, Nicotine ditartrate dihydrate, reference compound], the “place preference (in words)” value in data set [3] (0.5 mg/kg nicotine, males and females combined, post hoc Tukey) was “significant place preference”. The CPP score in data set [3] (female mice, 0.5 mg/kg nicotine, intraperitoneal) was 127.5; in data set [3] (male mice, 0.5 mg/kg nicotine, intraperitoneal), 131.2. For the same compound, the “T1/2 of nicotine in mice” value in data set [7] is 6 to 7 min.
`C[C@]12CC[C@H]3[C@@H](CCC4=CC(=O)CC[C@@]43C)[C@@H]1CC[C@@H]2O` [testosterone, reference compound]: the half-life in data set [6] (mouse liver microsomes) came out at 4.58 min. The microsomal CLint in data set [6] (mouse liver microsomes, read-out: CLint) is 302 µL/min/mg.
